Values joined by “and” are separate entries in the source; they are usually repeats but may differ in a detail not shown here. Identical values can stand only once. Marks after values point to notes of the source that are not given here.
How the values were obtained:
[1] = in vivo; conditions: female, C3H/HeN, mouse; for AUC: intraperitoneal
Description: (§3) At various times blood was collected from the retro-orbital sinus of anaesthetised mice into heparinised tubes, and the plasma separated by centrifugation. Tumours were rapidly dissected and frozen at -80°C. Groups of 2-5 mice were used for each time point.
(§4) LC-MS analysis of paclitaxel: Concentrations of paclitaxel in plasma and tumour were determined by HPLC with detection by positive mode electrospray mass spectrometry. Aliquots of plasma (50 µl) were treated with 1ml of ice-cold acetonitrile:methanol (3:1 v/v) to precipitate proteins. Following addition of 5 µl of an internal standard solution (10 mM cephalomannine), samples were centrifuged, and the resulting supernatants evaporated using a Speed-Vac solvent concentrator (Savant Instruments, NY). The residues were dissolved in 100 µl of 1:1 (v/v) methanol:mobile phase (48% acetonitrile, 52% 1mM sodium acetate buffer (pH 6.2)), and 5-40 µl analysed by LC-MS. Frozen tumours were minced, then homogenised in 2 vol distilled water using a Polytron homogeniser. Ice-cold acetonitrile (1 ml), and 10 µl of internal standard (20 µM cephalomannine) was added to 200 µl of tumour homogenate. The samples were centrifuged and the supernatants dried as above. The residues were dissolved in 200 µl of 1:1 (v/v) methanol:mobile phase, and 5 µl analysed by LC-MS.
(§5) The LC-MS system was an Agilent HP1100/MSD (Hewlett Packard Waldbronn, Germany) with a 3.2 mm x 150 mm C8 5 µm column (Alltima Associates Inc., Deerfield, IL) and a flow rate of 0.7 ml/min. The mass detector used N2 as the nebulizing and drying gas (flow rate 10 L/min, 350°C; neubulizer pressure 25 psi, capillary voltage 2500 V, fragmentor voltage 120 V). Paclitaxel (MW 854) and cephalomannine internal standard (MW 832) were detected, using single ion monitoring, as sodium adducts at m/z of 876 and 854, respectively. Spiking of control material indicated assay linearity from 0.3-30 µM for both plasma and tumour (r^2 = 0.999). The intra- and inter- assay precision and accuracy gave coefficients of variation ≤ 5%, and recoveries in the range 92-102%. The lower limit of detection of paclitaxel in plasma and tumour (signal:noise ratio of 3) was 0.3 µM.
(§6) Aliquots of plasma (50 µl) were treated with 1 ml of ice-cold acetonitrile:methanol (3:1 v/v), centrifuged, and the resulting supernatants evaporated as above. The residues were dissolved in 200 µl of 10 mM ammonium acetate buffer (pH 5) and 25 µl was analysed by HPLC using a HP1100 system with diode array detector (278 nm) and fluorescence detector. The column and flow rate were as for paclitaxel above, with a mobile phase of 16% acetonitrile (v/v) in 10 mM ammonium acetate buffer (pH 5). […] The intra- and inter- assay precision and accuracy gave coefficients of variation <7%, and an average recovery of 70%. The lower sensitivity limit of detection by fluorescence (signal:noise ration of 3) was 0.1 µM.
(§7) Pharmacokinetic Modelling: Modelling of pharmacokinetic data was done using ModelMaker version 4.0 (Cherwell Scientific Limited, The Magdalen Centre, Oxford Science Park, Oxford OX4 4GA, United Kingdom). The following pharmacokinetic parameters were used: Kabs, the first-order rate constant for absorption into the central compartment; Cl, total body clearance; Clinter, intercompartmental clearance; Vd, apparent volume of distribution of the central compartment; Vd2, apparent volume of distribution of the second compartment; Km, Michaelis-Menten constant; Vmax, theoretical maximum rate; AUC, area under the concentration-time curve. For all compounds it was assumed that all of the administered dose would reach the central compartment (i.e. 100% bioavailability). Differences between treatment groups were tested using a F-test comparing the entire curves and if this difference was significant (i.e. p≤0.05) the estimates of each individual model parameter for both groups were tested using a 2-tailed t-test.

[2] = Pharmacokinetics in plasma and tumour of tumour-bearing mice
Description: as §3, §4, §5, §6, §7

[3] = system: Murine mammary carcinoma MDAH-Mca-4 tumours; assay: Tumour growth delay and cures, MDAH-Mca-4 tumours grown i.m. in mice; type: in vivo, female C3H/HeN mice; conditions: for activity against the MDAH-Mca-4 tumour (in words): single i.p. dose, alone or co-administered with DMXAA 80 µmol/kg
Description: (§1) Murine mammary carcinoma MDAH-Mca-4 tumours were grown in female C3H/HeN mice from stocks stored in liquid nitrogen at the sixth transplant generation, and were passaged and used for experiments at the eighth transplant generation. Tumours for experiments were grown by inoculating 20 µl of cell suspension ([…] packed cells) intramuscularly in the right gastrocenmius muscle. Animals were randomised to treatment groups, and treated with drugs when the diameter of the tumour-bearing leg reached 10-11 mm (ca. 0.6 g tumour), approximately 18 days after inoculation. […] Both compounds were administered essentially at the same time (within 1 min). Host toxicity was assessed by determination of lethality, and by measurement of body weight 4-5 days after drug treatment. The diameter of the tumour-bearing leg was measured three times weekly until values exceeded 13 mm (ca 1.4 g tumour) at which time the animals were terminated. The growth curve for each individual tumour was plotted as in Figure 1, and the time-to-endpoint (TTE, time from treatment to endpoint) was determined for each mouse. The median and mean TTE was determined for each treatment group. The mean tumour growth delay for each group was calculated as the difference between mean TTE for treated and control groups. The statistical significance of the antitumour effects was tested using ANOVA followed by Dunnett's test to determine p values for the significance of differences between individual groups.
Animals and Tumours: Murine mammary carcinoma MDAH-Mca-4 tumours were grown from stocks stored in liquid nitrogen at the sixth transplant generation. Tumours (eighth transplant generation when used) were grown from 20 µl of cell suspension (7 mg packed cells), inoculated i.m. in the right gastrocnemius muscle of female C3H/HeN mice (22-25 g at the time of treatment). Mice were randomised to treatment which commenced when the tumour + leg diameter reached 10-11 mm (0.5-0.7 g tumour).
(§2) Toxicity was assessed as lethality, and body weight loss measured four days after treatment. Any animals becoming moribund were terminated and treated as drug-related deaths in the analysis. The diameter of the tumour-bearing leg was measured 3 times per week after treatment. Antitumour activity was assessed from the tumour growth delay, defined as the difference in time to reach the endpoint of 13 mm (1.5 g tumour) for treated and control groups. Responses were classed as cures if animals were free of evident tumour 120 days after treatment. The statistical significance of tumour growth inhibition was tested by ANOVA using SAS for Windows, with Dunnett's test to evaluate p-values for differences between treatment groups. In experiments with substantial numbers of cures (free of tumour for > 120 days after treatment), statistical significance was tested by Kruskal-Wallis non-parametric analysis of variance using SAS for Windows, and the difference between treatment and control groups by Dunn's test using Sigmastat v2.0.

[4] = system: MDAH-Mca-4 tumour; assay: Tumour blood flow inhibition, Hoechst 33342 perfusion marker; type: in vivo, mice; conditions: DMXAA at 80 µmol/kg (Fig 6A)
Description: Tumour blood flow inhibition: Tumour blood flow was assessed using the fluorescent perfusion marker Hoechst 33342 (8mg/ml in saline), which was administered i.v. at various times after drug treatment. Mice were scarified 2 min later, and frozen sections (14 µm) prepared from the distal, central and proximal regions of each tumour. Sections were examined with a Nikon epifluorescence microscope at 10x magnification using a UV-1A filter block (excitation 365 nm, barrier filter 400 nm, and dichroic mirror 400 nm). A grid with 81 squares (100 x 100 µm), was used for point scoring of staining. The whole area of each section was scored to avoid bias between peripheral and central regions (which were less well perfused). Normal tissue was excluded but necrotic areas were included. Differences between groups were treated for significance using the Student's t-test (Sigma Stat, version-2.0; Jandel Scientific Limited).

[5] = Host toxicity: lethality, body weight change, MTD in tumour-bearing mice; conditions: for lowering of the MTD for the chemotherapy drug in the combination: co-administration of DMXAA 80 µmol/kg, one dose level; for MTD: MTD (µmol/kg)
Description: as §1, §2

[6] = DMXAA 80 µmol/kg alone, i.p. once (Table 1)
[7] = chemotherapy drug alone, linear regression of growth delay on dose
[8] = chemotherapy drug co-administered with DMXAA 80 µmol/kg, linear regression
[9] = chemotherapy drug alone at its MTD, i.p.
[10] = chemotherapy drug at MTD of combination, co-administered with DMXAA 80 µmol/kg
[11] = female, C3H/HeN, mouse, in vivo, ip, chemotherapy drug alone (no DMXAA)
[12] = female, C3H/HeN, mouse, in vivo, ip, chemotherapy drug co-administered with DMXAA 80 µmol/kg
[13] = paclitaxel 31.6 µmol/kg alone, i.p. once
[14] = paclitaxel 31.6 µmol/kg alone, i.p. once, 7 mice treated

Which results are given for Cc1ccc2c(=O)c3cccc(CC(=O)O)c3oc2c1C [DMXAA, 5,6-dimethylxanthenone-4-acetic acid]?
AUC ([1]; plasma, 80 umol/kg): 3630 µM·h; Km ([1]; plasma, ip, 80 µmol/kg): 220 µM; effect of co-administration on DMXAA plasma pharmacokinetic parameters ([2]; DMXAA 80 µmol/kg with paclitaxel at 23.7 µmol/kg): unaffected; Vmax (µM hr^-1) ([2]; Plasma, DMXAA 80 µmol/kg i.p., parentheses % CV): 63 (6.1) µM hr^-1; Growth delay (days) Median ([3]; DMXAA 80 µmol/kg alone (Table 3, interim analysis)): 10.5 days; Growth delay (days) Mean [3, 6]: 8.3 days; Number of mice Cures ([3]; DMXAA 80 µmol/kg alone, i.p. once, 7 mice treated (Table 1)): 0; mean tumour growth delays (range over experiments) ([3]; DMXAA alone at 80 µmol/kg): 3.5 to 8.3 days; tumour growth delay, overall mean ([3]; DMXAA alone at 80 µmol/kg, all experiments): 6.6 ± 0.6 days; inhibition of tumour blood flow (H33342 perfusion), time course [4]: prompt and irreversible blood flow shutdown, with no recovery by 24 hr; % Body weight change (d4-5) Mean ([5]; DMXAA 80 µmol/kg alone (Table 3)): -4.8%; % Body weight change (d4-5) Mean [5, 6]: -4.1%

With CC(=O)O[C@@]12CO[C@@H]1C[C@H](O)[C@@]1(C)C(=O)[C@H](O)C3=C(C)[C@@H](OC(=O)[C@H](O)[C@@H](NC(=O)OC(C)(C)C)c4ccccc4)C[C@@](O)([C@@H](OC(=O)c4ccccc4)[C@H]21)C3(C)C [docetaxel, (2R,3S)-N-carboxy-3-phenylisoserine, N tert-butyl ester, 13-ester with 5b-20-epoxy-1,2a,4,7b,10b,13a-hexahydroxytax-11-en-9-one 4-acetate 2-benzoate trihydrate] as the compound, how does the “Growth delay (days) Median” value ([3]; Docetaxel 17.8 µmol/kg alone, interim analysis) read?
Its value is -1.7 days.

And the “Growth delay (days) Median” value ([3]; Docetaxel 23.7 µmol/kg alone, interim analysis)?
Its value is 0.8 days.

And the “Slope of dose/response” value [3, 7]?
Its value is -0.02 ± 0.14 days/µmol/kg.

What about the “Slope of dose/response” value [3, 8] of the same compound?
The value was 1.37 ± 0.22 days/µmol/kg.

And the DMF ([3]; gradient with DMXAA/gradient without DMXAA, estimated using upper error estimate of the slope for the chemotherapy drug only, trihydrate)?
Its DMF is “significantly greater than unity”.

What about the DMF ([3]; im) of the same compound?
The DMF was >9^c.

What about the “activity against the MDAH-Mca-4 tumour (in words)” value ([3]; listed as Docetaxel, trihydrate) of the same compound?
Its value is “essentially inactive”.

And the “activity against the MDAH-Mca-4 tumour (in words)” value ([3]; trihydrate)?
Its value is “essentially devoid of activity”.

And the “% Body weight change (d4-5) Mean” value ([5]; Docetaxel 17.8 µmol/kg alone)?
The value was -1.8%.

And the “Number of mice Deaths” value ([5]; Docetaxel 17.8 µmol/kg alone, 2 mice treated, interim analysis)?
The value was 0.

What about the “% Body weight change (d4-5) Mean” value ([5]; Docetaxel 23.7 µmol/kg alone) of the same compound?
Its value is -4.1%.

What about the “Number of mice Deaths” value ([5]; Docetaxel 23.7 µmol/kg alone, 5 mice treated, interim analysis) of the same compound?
The value was 0.

And the “% body weight change at 4 days” value [5, 9]?
The value was -4.1 ± 1.3%.

And the “% body weight change at 4 days” value [5, 10]?
Its value is -7.2 ± 1.2%.

And the “lowering of the MTD for the chemotherapy drug in the combination” value [5]?
The value was 1.33 fold.

And the MTD [5, 11]?
The MTD was 23.7 µmol/kg.

What about the MTD [5, 12] of the same compound?
Its MTD is 17.8 µmol/kg.

What does the source list for CC(=O)O[C@H]1C(=O)[C@@]2(C)[C@H]([C@H](OC(=O)c3ccccc3)[C@]3(O)C[C@H](OC(=O)[C@H](O)[C@@H](NC(=O)c4ccccc4)c4ccccc4)C(C)=C1C3(C)C)[C@]1(OC(C)=O)CO[C@@H]1C[C@@H]2O [paclitaxel, 5β, 20-Epoxy-1,2a,4,7β,10β,13a-hexahydroxytax-11-en-9-one 4,10-diacetate 2-benzoate 13-ester with (2R, 3 S)-N-benzoyl-3-phenylisoserine]?
AUC ([1]; plasma, 23.7 umol/kg): 18.8 µM·h; AUC ([1]; tumour, 23.7 umol/kg): 32.8 µM·h; antitumour activity ([3]; DMXAA dose-response experiment (Fig 5), paclitaxel alone at 23.7 µmol/kg): no significant activity; Slope of dose/response [3, 7]: 0.08 ± 0.06 days/µmol/kg; Slope of dose/response [3, 8]: 1.83 ± 0.4 days/µmol/kg; DMF ([3]; gradient with DMXAA/gradient without DMXAA, estimated using upper error estimate of the slope for the chemotherapy drug only): significantly greater than unity; DMF ([3]; gradient with DMXAA/gradient without DMXAA, estimated using upper error estimate of the slope for the chemotherapy drug only, listed as Paclitaxel): >13^c; Growth delay (days) Mean [3, 13]: 0.1 days; Number of mice Cures [3, 14]: 0; Growth delay (days) Mean ([3]; paclitaxel 42.1 µmol/kg alone, i.p. once): 4 days and 4.3 days; Number of mice Cures ([3]; paclitaxel 42.1 µmol/kg alone, i.p. once, 7 mice treated): 0; activity against the MDAH-Mca-4 tumour (in words) [3]: essentially inactive; % body weight change at 4 days [5, 9]: 0.3 ± 1.1%; % body weight change at 4 days [5, 10]: -3.9 ± 1.2%; lowering of the MTD for the chemotherapy drug in the combination [5]: 1.33 fold; Number of mice Deaths ([5]; female, C3H/HeN, mouse, in vivo, ip, 42.1 µmol/kg): 0; MTD [5, 11]: 42.1 µmol/kg; MTD [5, 12]: 31.6 µmol/kg; % Body weight change (d4-5) Mean ([5]; mouse, in vivo, ip): 0.3%; % Body weight change (d4-5) Mean [5, 13]: 1.9%; Number of mice Deaths [5, 14]: 0

Source: patent EP1287854B1 (Cancer Research Technology Limited, priority 2001, dated 2003)
